Reference: paper PMC7044277 (Nature Communications, 2020)
“And” between values parts separate entries of the source, which are not always exact repeats. Identical values can stand only once.

Key:
Type in all cases: cell-based
320 non-olfactory GPCRs [1] = biological target: T1, 320 non-olfactory GPCRs (Homo sapiens, UniProt P08173)
T1 construct: expressed in transfected cells; host or cells: HTLA cells

320 non-olfactory GPCRs [2] = biological target: T2, 320 non-olfactory GPCRs (Homo sapiens, UniProt P35410); details: receptor MAS1L; replicate values, Fig_4g
T2 construct: expressed in transfected cells; host or cells: HTLA cells

320 non-olfactory GPCRs [3] = biological target: 320 non-olfactory GPCRs (Homo sapiens, UniProt P11229)
320 non-olfactory GPCRs [4] = biological target: T3, 320 non-olfactory GPCRs (Homo sapiens, UniProt Q9GZQ6); details: receptor NPFF1; replicate values, Fig_4g
T3 construct: expressed in transfected cells; host or cells: HTLA cells
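Throughout, for Fold of Basal: compound tested at 1 µM final concentration.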
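Throughout, for GPCRome agonism screen response: fold over basal response of each receptor without drug.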

T2 sequence (P35410 whole entry): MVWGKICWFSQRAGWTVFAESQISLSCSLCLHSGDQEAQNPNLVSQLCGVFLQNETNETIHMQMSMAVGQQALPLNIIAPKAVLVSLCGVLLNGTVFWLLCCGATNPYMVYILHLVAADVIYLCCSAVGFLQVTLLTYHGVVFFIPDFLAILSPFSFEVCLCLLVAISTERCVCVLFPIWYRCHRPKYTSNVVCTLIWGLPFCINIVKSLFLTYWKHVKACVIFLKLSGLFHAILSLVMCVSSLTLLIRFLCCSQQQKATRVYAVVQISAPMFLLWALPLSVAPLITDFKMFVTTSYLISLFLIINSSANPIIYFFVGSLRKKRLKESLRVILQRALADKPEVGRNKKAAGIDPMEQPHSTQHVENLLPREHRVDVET
T3 sequence (Q9GZQ6 whole entry): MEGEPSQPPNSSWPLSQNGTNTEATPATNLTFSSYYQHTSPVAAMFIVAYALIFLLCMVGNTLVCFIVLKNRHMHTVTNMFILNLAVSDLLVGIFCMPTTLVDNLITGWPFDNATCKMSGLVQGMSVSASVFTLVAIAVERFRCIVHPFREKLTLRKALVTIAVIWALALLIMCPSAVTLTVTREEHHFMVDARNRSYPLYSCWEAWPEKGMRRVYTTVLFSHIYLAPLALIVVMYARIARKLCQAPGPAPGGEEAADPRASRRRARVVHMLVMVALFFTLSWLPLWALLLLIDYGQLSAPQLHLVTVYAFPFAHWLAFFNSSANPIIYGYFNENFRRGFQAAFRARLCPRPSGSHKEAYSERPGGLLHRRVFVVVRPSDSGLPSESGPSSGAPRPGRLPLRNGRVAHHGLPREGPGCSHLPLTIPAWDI
Chain of 320 non-olfactory GPCRs (Homo sapiens, UniProt P11229) (P11229 whole entry): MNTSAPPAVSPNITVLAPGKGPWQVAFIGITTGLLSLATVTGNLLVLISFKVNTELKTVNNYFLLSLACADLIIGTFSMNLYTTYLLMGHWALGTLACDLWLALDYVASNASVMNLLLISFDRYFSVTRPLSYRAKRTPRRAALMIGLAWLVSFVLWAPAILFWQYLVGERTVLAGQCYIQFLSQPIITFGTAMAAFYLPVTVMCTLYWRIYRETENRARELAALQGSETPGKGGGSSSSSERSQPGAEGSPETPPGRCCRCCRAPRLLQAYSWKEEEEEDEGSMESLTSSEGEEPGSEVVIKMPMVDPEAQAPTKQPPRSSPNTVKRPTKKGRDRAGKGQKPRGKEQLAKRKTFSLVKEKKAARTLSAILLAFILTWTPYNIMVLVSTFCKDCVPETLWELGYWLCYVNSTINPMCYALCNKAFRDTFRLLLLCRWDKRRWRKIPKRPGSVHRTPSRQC
T1 sequence (P08173 whole entry): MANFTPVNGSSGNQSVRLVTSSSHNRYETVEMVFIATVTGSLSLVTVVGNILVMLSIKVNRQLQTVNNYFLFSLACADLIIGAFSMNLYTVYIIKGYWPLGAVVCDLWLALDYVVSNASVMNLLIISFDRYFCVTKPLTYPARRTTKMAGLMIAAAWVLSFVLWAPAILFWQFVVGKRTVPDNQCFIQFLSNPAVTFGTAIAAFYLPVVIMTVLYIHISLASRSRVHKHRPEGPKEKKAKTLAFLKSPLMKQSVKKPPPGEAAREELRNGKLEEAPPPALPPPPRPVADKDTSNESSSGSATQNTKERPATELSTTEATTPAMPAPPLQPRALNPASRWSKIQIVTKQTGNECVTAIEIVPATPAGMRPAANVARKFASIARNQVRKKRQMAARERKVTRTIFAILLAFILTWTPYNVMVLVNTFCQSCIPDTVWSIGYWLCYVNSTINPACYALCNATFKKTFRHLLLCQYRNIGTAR

CCOc1cccc2cc(C(C)NCC3(O)CCCCC3)oc12 (stereo not shown) [O4LE6] was tested, and the “Fold of Basal” value (320 non-olfactory GPCRs [1]) was 0.6531 and 0.5382 and 0.5491 and 0.5885, the “GPCRome agonism screen response” value (320 non-olfactory GPCRs [2]) was 0.5688 and 0.6917 and 1.207 and 0.7272 and the “Fold of Basal” value (320 non-olfactory GPCRs [3]) was 0.6962 and 0.7878 and 0.5081 and 0.6515. For the same compound, the “GPCRome agonism screen response” value (320 non-olfactory GPCRs [4]) was 1.802 and 0.79 and 0.7669 and 0.6228.
